Peptide text beside a SMILES is read from it. * marks the point of attachment. NHtBu = CC(C)(C)N*
How the values were obtained:
[1] = method code SF-AS, from DOI: 10.1021/jm00395a009, PMID: 3681892; details: pH 7.4
[2] = method code SF-HPLC, from DOI: 10.1016/0378-5173(88)90064-6; details: pH 7.4
[3] = not given; remark: listed apart in the source
[4] = method code SF-AS, from DOI: 10.1016/0223-5234(94)90063-9; details: pH 2.0
[5] = method code SF-HPLC, from DOI: 10.1002/jps.10072, PMID: 11920751; details: pH 7.4
[6] = not given; remark: listed apart in the source
[7] = method code SF-AS, from Falk, M.; Luecke, L. (1989). Transport of substances through lipid membranes. 11. Effect of esterification on the dissociation and permeation of orotic acid. Pharmazie, 44(9)647.; details: pH 1.2
[8] = not given; remark: listed apart in the source
[9] = method code SF, from DOI: 10.1021/jm200015a, PMID: 21630666; details: pH 7.4
[10] = method code SF, from DOI: 10.1016/0378-5173(90)90261-2; details: pH 3.0
[11] = not given; remark: listed apart in the source
[12] = not given; remark: listed apart in the source
[13] = method code SF-HPLC, from Yu, G.; Xu, X. (1993). Determination of the 1-octanol/water partition coefficient of nitro-PAHs. Huanjing Huaxue, 12(4)299-303.
[14] = method code SF-AS, from DOI: 10.1016/s0969-8051(99)00063-3, PMID: 10628565; details: pH 7.0
[15] = method code SF-HPLC, from DOI: 10.1023/a:1018903407592, PMID: 8165182; details: pH 7.4
[16] = not given; remark: listed apart in the source
[17] = method code SF-RC, from DOI: 10.1002/ps.2780410303
[18] = not given; remark: listed apart in the source
[19] = not given; remark: listed apart in the source
[20] = not given; remark: listed apart in the source
[21] = method code SF-RC, from DOI: 10.1023/a:1015892313856, PMID: 1495896
[22] = not given; remark: listed apart in the source
[23] = not given; remark: listed apart in the source
[24] = method code SF, from DOI: 10.1248/cpb.39.1346, PMID: 1914012
[25] = method code SF-AS, from DOI: 10.1016/0378-5173(86)90115-8
[26] = not given; remark: listed apart in the source

CC(=O)OCC1OC(n2ccc(=O)n(Cc3ccccc3)c2=O)C(OC(C)=O)C1OC(C)=O (centres undefined)
logD [1]: 1.51

CC(=O)NC(CCC(=O)O)C(=O)Nc1nnc(-c2cccc(Cl)c2Cl)c(N)n1 (centres undefined)
logP: 1.6

CC(=O)c1ccc2cc(C(C)C(=O)OCC(=O)N(C)CCO)ccc2c1 (centres undefined)
logD [2]: 2.01

CC1=C(C)C(O)N(c2ccc(C(F)(F)F)cc2)C1=O (centres undefined)
logP [3]: 3.13

COc1ccc(C(=O)c2ncc(CC(=O)O)n2C)cc1
logD [4]: 0.11

CC(=O)OCC(CO)OCn1cnc2c(=O)[nH]c(N)nc21 (centres undefined)
logD [5]: -1.08

CC(=O)NCC(=O)Nc1nnc(-c2cccc(Cl)c2Cl)c(N)n1
logP: 1.1

Clc1cc2oc3c(Cl)c(Cl)c(Cl)c(Cl)c3c2cc1Cl
logP [6]: 6.6

CCCCCCCOC(=O)c1cc(=O)[nH]c(=O)[nH]1
logD [7]: 2.15

Brc1cc(Br)c(-c2cc(Br)ccc2Br)c(Br)c1
logP [8]: 6.89

Cc1cc(-c2ccc(OC(F)(F)F)cc2)ccc1-c1ccc2[nH]c3c(c(=O)c2c1)CSCC3
logD [9]: 3.6

Cn1c(CC(=O)O)cnc1C(=O)c1ccc(Cl)cc1
logD [4]: 1.17

O=C(O)CCCCCc1ccccc1
logD [10]: 3.27

O=C1CCCCCCCCCCC1
logP [11]: 4.1

Fc1ccc(-c2ccc(-c3ccc(F)cc3)o2)cc1
logP [11]: 5.11

CCCN(CCCl)c1c([N+](=O)[O-])cc(C(F)(F)F)cc1[N+](=O)[O-]
logP [12]: 4.63

O=[N+]([O-])c1c2ccccc2cc2ccccc12
logP [13]: 4.21

COCCn1cnc2c(=O)[nH]c(Nc3ccccc3)nc21
logD [14]: 1.2

CCCCCC(=O)OCCOCn1cnc2c(=O)[nH]c(N)nc21
logD [15]: 0.93

O=C(O)CCCCCCc1ccccc1
logD [10]: 3.63

CC(=O)OCC1OC(n2ccc(N)nc2=O)C(O)C1O (centres undefined)
logP [16]: -1.25

COCc1cnc(C2=NC(C)(C(C)C)C(=O)N2)c(C(=O)O)c1 (centres undefined)
logD ([17]; pH 2.5): 0.47

O=[N+]([O-])c1cccc(-c2ccccc2)c1
logP [13]: 3.69

CC(C)C1(C)N=C(c2ncc(Br)cc2C(=O)O)NC1=O (centres undefined)
logD ([17]; pH 1.8): 1.19

O=c1[nH]c(Nc2ccccc2)nc2c1ncn2CCO
logD [14]: 0.83

Brc1c(Br)c(Br)c(Oc2c(Br)c(Br)c(Br)c(Br)c2Br)c(Br)c1Br
logP [8]: 9.56

S=c1ssc(-c2ccccc2)c1-c1ccccc1
logP [18]: 4.2

CCCC(=O)OCCOCn1cnc2c(=O)[nH]c(N)nc21
logD [15]: -0.08

Cc1cn(C2CC(N=[N+]=[N-])C(COC(=O)c3ccncc3)O2)c(=O)[nH]c1=O (centres undefined)
logP [16]: 0.8

CC(C)NC(C)Cc1ccc(I)cc1 (centres undefined)
logP [19]: 1.6

O=c1c2c([nH]c3ccc(Br)cc13)CCSC2
logD [9]: 0.9

COc1ccc(C(C(=O)O)C(C)C)cc1 (centres undefined)
logP [20]: 2.5

CC(=O)NC(C)C(=O)NC(CCC(N)=O)C(=O)NC(C)C(=O)NC(C)(C)C (stereo not drawn) (Ac-Ala-Gln-Ala-NHtBu; configuration not given here)
logD ([21]; pH 2.0): -0.67

COc1ccc(C(c2ccc(OC)cc2)C(Cl)Cl)cc1
logP [11]: 3.78

CC(C)C(C(=O)O)c1ccc(Cl)cc1 (centres undefined)
logP [20]: 3.38

CC(=O)c1cccc(Nc2ccccc2C(=O)O)c1
logP [22]: 4.07

Clc1cc(Cl)c2oc3c(Cl)c(Cl)c(Cl)c(Cl)c3c2c1
logP [23]: 7.58

Clc1cc2c(c(Cl)c1Cl)Oc1cc(Cl)c(Cl)c(Cl)c1O2
logP [6]: 7.8

Cn1c(CC(=O)O)cnc1C(=O)c1ccc([N+](=O)[O-])cc1
logD [4]: 0.86

CC(=O)NC(C)C(=O)NC(CC(=O)O)C(=O)NC(C)(C)C (stereo not drawn) (Ac-Ala-Asp-NHtBu; configuration not given here)
logD ([21]; pH 2.0): -0.74

O=C(CCCN1CCC(O)(c2ccc(I)cc2)CC1)c1ccc(F)cc1
logP [19]: 2.6

COC(=O)C(C)Oc1ccc(Oc2ncc(C(F)(F)F)cc2Cl)cc1 (centres undefined)
logP [12]: 4.07

CC(=O)OC[C@H]1O[C@@H](n2cc(C)c(=O)[nH]c2=O)C[C@@H]1N=[N+]=[N-]
logP [16]: 0.45

O=C(O)c1ccccc1Nc1cccc(O)c1
logP [22]: 3.43

CC1(C(=O)O)CCC2(C)CCC3(C)C(=CC(=O)C4C5(C)CCC(O)C(C)(C)C5CCC43C)C2C1 (centres undefined)
logP [24]: 4.77

O=c1[nH]c(Nc2ccccc2)nc2c1ncn2C1CC(O)C(CO)O1 (centres undefined)
logD [14]: 0.4

O=c1c2c([nH]c3cc(-c4ccc(-c5ccc(OC(F)(F)F)cc5)cc4)ccc13)CCCC2
logD [9]: 3.8

CSCCC(NC(C)=O)C(=O)Nc1nnc(-c2cccc(Cl)c2Cl)c(N)n1 (centres undefined)
logP: 1.92

CCCCCCCCOC(=O)c1cc(=O)[nH]c(=O)[nH]1
logD [7]: 2.6

COC1OC(n2ccc(=O)[nH]c2=O)C(OC)C1OC (centres undefined)
logD [1]: -0.3

O=[N+]([O-])c1ccc2ccc3cccc4ccc1c2c34
logP [13]: 5.06

S=c1ssc2c1CCCCCCCCCCCCC2
logP [18]: 7.18

Clc1cc2oc3cc(Cl)c(Cl)c(Cl)c3c2c(Cl)c1Cl
logP [23]: 7.57

CC12CCC(c3c1ssc3=S)C2(C)C (centres undefined)
logP [18]: 3.7

Brc1ccc(-c2cc(Br)ccc2Br)c(Br)c1
logP [8]: 6.49

CN(C(=O)CCO)c1ccc(S(=O)(=O)N(C)C)cc1
logP [25]: -0.26

O=S(=O)(Nc1ccc(Cl)cc1)c1cc(Cl)cc(Cl)c1O
logP [26]: 3.66

CN(CCO)C(=O)COC(=O)c1ccccc1O
logD [2]: 0.86

CC1=C(C)C(O)N(c2ccc(C(F)(F)F)c(Cl)c2)C1=O (centres undefined)
logP [3]: 3.53

O=S(=O)(Nc1ccccc1)c1c(O)c(Cl)cc(Cl)c1Cl
logP [26]: 3.74

Clc1cc(Cl)c2oc3c(Cl)cc(Cl)c(Cl)c3c2c1Cl
logP [23]: 7.65

CCCCC(=O)OCC(CO)OCn1cnc2c(=O)[nH]c(N)nc21 (centres undefined)
logD [5]: -0.07

CC(=O)c1ccc2cc(C(C)C(=O)OCC(=O)N(C)C)ccc2c1 (centres undefined)
logD [2]: 2.05

CCCCC(=O)N(C)c1ccc(S(=O)(=O)N(C)C)cc1
logP [25]: 1.63

CC1=C(C)C(O)N(c2cccc(N)c2)C1=O (centres undefined)
logP [3]: 0.51

O=c1ccn(C2OC(CO)C(O)C2O)c(=O)n1Cc1ccccc1 (centres undefined)
logD [1]: 0.33

Cc1ccccc1NS(=O)(=O)c1c(O)c(Cl)cc(Cl)c1Cl
logP [26]: 4.02

CC1(C)[C@@H](O[C@H]2O[C@H](C(=O)O)[C@@H](O)[C@H](O)[C@H]2O[C@@H]2O[C@H](C(=O)O)[C@@H](O)[C@H](O)[C@H]2O)CC[C@@]2(C)[C@@H]3C(=O)C=C4[C@H]5C[C@@](C)(C(=O)O)CC[C@@]5(C)CC[C@@]4(C)C3(C)CC[C@@H]12 (some centres undefined)
logP [24]: 2.8

Clc1cc2c(oc3cc(Cl)c(Cl)c(Cl)c32)c(Cl)c1Cl
logP [6]: 6.6

CC(=O)N[C@@H](C)C(=O)NCC(=O)NC(C)(C)C
logD ([21]; pH 7.2): -0.6

O=[N+]([O-])c1cccc(O[C@@H]2O[C@H](CO)[C@@H](O)[C@H](O)[C@H]2O)c1
logP [24]: -0.46

CCCCCCCCCOC(=O)c1cc(=O)[nH]c(=O)[nH]1
logD [7]: 2.41

Cc1cc(I)cc(CN(C)CCCN(C)C)c1O
logP [19]: 2.2

CCCCC(=O)OCCOCn1cnc2c(=O)[nH]c(N)nc21
logD [15]: 0.37

O=C(O)c1cc(Oc2ccc(C(F)(F)F)cc2Cl)ccc1[N+](=O)[O-]
logP [12]: 4.26

CN(C(=O)CCC#N)c1ccc(S(=O)(=O)N(C)C)cc1
logP [25]: -0.17

CCC(=O)OCC(CO)OCn1cnc2c(=O)[nH]c(N)nc21 (centres undefined)
logD [5]: -0.92

O=C(O)CCCCCCCc1ccccc1
logD [10]: 4.09

COc1cccc(Nc2ccccc2C(=O)O)c1
logP [22]: 4.31

Reference: the SangsterLogP compilation
